These results are taken from US20250179047A1, “5-[7-(3,4-DIHYDRO-1H-ISOQUINOLINE-2-CARBONYL)-1,2,3,4 TETRAHYDROISOQUINOLIN-6-YL]-1H-PYRROLE-3-CARBOXAMIDE DERIVATIVES, PHARMACEUTICAL COMPOSITIONS CONTAINING THEM AND THEIR USES AS PRO-APOPTOTIC AGENTS” (LES LABORATOIRES SERVIER, priority 2022, published 2025).

In one assay the target is BCLXL WT (Homo sapiens (Human), UniProt Q07817). As to the kind of experiment: TR-FRET competitive binding assay, BCLXL WT. The note with it: for Ki: BCLXL WT, Ki determined from IC50, read-out: TR_FRET EKI BclxL; for TR_FRET EKI BCLxL/WT selectivty ratio: ratio Ki BCLxL / Ki BCL2 WT. An outline of the steps: (§1)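 Ki derived from IC50 (11-point dilution, 520/495 nm emission ratio) for displacing a fluorescein-labelled PUMA peptide (2 or 20 nM). Target was 0.5 nM E. coli-expressed Halo-tagged BCL2 (1-207) or BCLXL (2-196), terbium-labelled on Halo. Incubation 2 h at 23°C in pH 7.5 Hepes with 150 mM NaCl and 5% DMSO.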

Another assay addresses BCL2 WT (Homo sapiens (Human), UniProt P10415). The assay is described as follows: TR-FRET competitive binding assay, BCL2 WT. The note with it: Ki determined from IC50, read-out: TR_FRET EKI_Bcl2 WT. An outline of the steps:
as §1

The subject of another assay is KMS-12-PE Bcl-2 WT. As to the kind of experiment: In vitro cytotoxicity CellTiter-Glo 48 h, KMS-12-PE Bcl-2 WT. The format is cell-based. The note with it: Homo sapiens, KMS-12-PE, C50 = concentration needed to reach 50% of the cellular viability. The method, boiled down:
(§2)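 Transduce KMS-12-PE with Bcl-2 WT or G101V lentivirus, then FACS-sort RFP-positive cells. Add compounds in an 11-point dilution series and incubate 48 h at 37 °C. Measure ATP-based luminescence with CellTiter-Glo and derive C50 (50% viability).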

The next assay has as its target BCL2 D103Y (Homo sapiens, UniProt P10415, D103Y). The assay is described as follows: TR-FRET competitive binding assay, BCL2 D103Y. The note with it: Ki determined from IC50, read-out: TR_FRET EKI_Bcl2 D103Y. An outline of the steps:
as §1

Assay [1] concerns the target BCL2 G101V (Homo sapiens, UniProt P10415, G101V). The assay is described as follows: TR-FRET competitive binding assay, BCL2 G101V. Conditions: BCL2 G101V; Ki determined from IC50; read-out: TR_FRET EKI_Bcl2 G101V. An outline of the steps:
as §1

In assay [2] the test system is BCL2 G101V. The assay is described as follows: TR-FRET competitive binding assay, BCL2 G101V. The note with it: ratio Ki BCL2 G101V / Ki BCL2 WT. Details: species or system human. The method, boiled down: as §1
A further assay has as its system KMS-12-PE Bcl-2 G101V. The assay is described as follows: In vitro cytotoxicity CellTiter-Glo 48 h, KMS-12-PE Bcl-2 G101V. The note with it: for Ratio (G101V/WT): C50 KMS-12-PE Bcl-2 G101V over C50 KMS-12-PE Bcl-2 WT; for IC50: Homo sapiens, KMS-12-PE, 48 h, CellTiter-Glo, C50 = concentration needed to reach 50% of the cellular viability. The format is cell-based. An outline of the steps:
as §2

Sequence of BCLXL WT (Q07817 other isoform, or with tags, fused parts or gaps): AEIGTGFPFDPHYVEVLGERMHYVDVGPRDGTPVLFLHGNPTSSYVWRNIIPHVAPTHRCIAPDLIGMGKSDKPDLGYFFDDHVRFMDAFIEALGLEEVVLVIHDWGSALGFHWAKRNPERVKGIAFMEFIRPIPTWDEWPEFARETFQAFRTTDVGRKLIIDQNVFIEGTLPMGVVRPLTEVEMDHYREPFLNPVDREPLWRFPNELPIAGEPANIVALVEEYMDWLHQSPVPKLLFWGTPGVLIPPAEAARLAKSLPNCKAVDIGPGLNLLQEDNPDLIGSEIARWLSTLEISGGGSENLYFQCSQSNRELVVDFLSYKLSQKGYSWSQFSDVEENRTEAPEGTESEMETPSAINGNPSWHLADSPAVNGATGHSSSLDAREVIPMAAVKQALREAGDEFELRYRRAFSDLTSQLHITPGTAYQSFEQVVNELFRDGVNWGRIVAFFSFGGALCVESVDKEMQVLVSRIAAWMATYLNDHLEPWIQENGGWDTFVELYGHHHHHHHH

As to `Cc1c(N(C(=O)c2cc(-c3cc4c(cc3C(=O)N3Cc5ccccc5C[C@H]3CN3CCCCC3)CN(C(=O)Cc3ccc(OCCN(C)CC5COC5)cc3)CC4)n(C)c2C)c2ccc(O)cc2)cc(C#N)n1C` [Example 104, N-(5-cyano-1,2-dimethyl-1H-pyrrol-3-yl)-N-(4-hydroxyphenyl)-1,2-dimethyl-5-(2-{2-[4-(2-{methyl[(oxetan-3-yl)methyl]amino}ethoxy)phenyl]acetyl}-7-[(3S)-3-[(piperidin-1-yl)methyl]-1,2,3,4-tetrahydroisoquinoline-2-carbonyl]-1,2,3,4-tetrahydroisoquinolin-6-yl)-1H-pyrrole-3-carboxamide], the Ki at BCLXL WT is 2.6 nM; at BCL2 WT, 0.07 nM; on BCL2 D103Y it was 0.17 nM; at BCL2 G101V [1] it was 0.4 nM. On BCLXL WT, the “TR_FRET EKI BCLxL/WT selectivty ratio” value is 40.0. The IC50 came out at 0.0166 µM with KMS-12-PE Bcl-2 WT and 0.0893 µM with KMS-12-PE Bcl-2 G101V. Moreover, the “TR_FRET EKI G101V/WT selectivty ratio” value with BCL2 G101V [2] was 5.8. Moreover, the “Ratio (G101V/WT)” value in the assay on KMS-12-PE Bcl-2 G101V was found to be 5.38.

As for `Cc1c(N(C(=O)c2cc(-c3cc4c(cc3C(=O)N3Cc5ccccc5C[C@H]3CN3CCCCC3)CN(C(=O)Cc3ccc(OCCN(C)C5COC5)cc3)CC4)n(C)c2C)c2ccc(O)cc2)cc(C#N)n1C` [Example 106, N-(5-cyano-1,2-dimethyl-1H-pyrrol-3-yl)-N-(4-hydroxyphenyl)-1,2-dimethyl-5-{2-[2-(4-{2-[methyl(oxetan-3-yl)amino]ethoxy}phenyl)acetyl]-7-[(3S)-3-[(piperidin-1-yl)methyl]-1,2,3,4-tetrahydroisoquinoline-2-carbonyl]-1,2,3,4-tetrahydroisoquinolin-6-yl}-1H-pyrrole-3-carboxamide], the Ki was found to be 1.8 nM at BCLXL WT, 0.05 nM on BCL2 WT, 0.19 nM on BCL2 D103Y and 0.3 nM at BCL2 G101V [1]. The “TR_FRET EKI BCLxL/WT selectivty ratio” value on BCLXL WT is on record as 36.0. Also, the IC50 in the assay with KMS-12-PE Bcl-2 WT turned out to be 0.0107 µM; in the assay on KMS-12-PE Bcl-2 G101V it was 0.0485 µM. Also, in the assay with BCL2 G101V [2], the “TR_FRET EKI G101V/WT selectivty ratio” value came out at 6.2. In addition, the “Ratio (G101V/WT)” value in the assay on KMS-12-PE Bcl-2 G101V turned out to be 4.53.

With `Cc1c(N(C(=O)c2cc(-c3cc4c(cc3C(=O)N3Cc5ccccc5C[C@H]3CN3CCCCC3)CN(C(=O)Cc3ccc(OCCN5CCN(CC(F)F)CC5)cc3)CC4)n(C)c2C)c2ccc(O)cc2)cc(C#N)n1C` [Example 112, N-(5-cyano-1,2-dimethylpyrrol-3-yl)-5-{2-[2-(4-{2-[4-(2,2-difluoroethyl)piperazin-1-yl]ethoxy}phenyl)acetyl]-7-{[(3S)-3-(piperidin-1-ylmethyl)-3,4-dihydro-1H-isoquinolin-2-yl]carbonyl}-3,4-dihydro-1H-isoquinolin-6-yl}-N-(4-hydroxyphenyl)-1,2-dimethylpyrrole-3-carboxamide], the Ki is 7.1 nM at BCLXL WT, 0.05 nM on BCL2 WT, 0.1 nM at BCL2 D103Y and 0.3 nM on BCL2 G101V [1]. The “TR_FRET EKI BCLxL/WT selectivty ratio” value at BCLXL WT turned out to be 134.0. Further, the IC50 came to 0.0124 µM in the assay on KMS-12-PE Bcl-2 WT and 0.0707 µM with KMS-12-PE Bcl-2 G101V. For the same molecule, the “TR_FRET EKI G101V/WT selectivty ratio” value with BCL2 G101V [2] came to 5.6. Also, in the assay with KMS-12-PE Bcl-2 G101V, the “Ratio (G101V/WT)” value was determined as 5.7.

`COc1cc(OCCN2CCOCC2)ccc1CC(=O)N1CCc2cc(-c3cc(C(=O)N(c4ccc(O)cc4)c4cc(C#N)n(C)c4C)c(C)n3C)c(C(=O)N3Cc4ccccc4C[C@H]3CN3CCCCC3)cc2C1` [Example 114, N-(5-cyano-1,2-dimethyl-1H-pyrrol-3-yl)-N-(4-hydroxyphenyl)-5-[2-(2-{2-methoxy-4-[2-(morpholin-4-yl)ethoxy]phenyl}acetyl)-7-[(3S)-3-[(piperidin-1-yl)methyl]-1,2,3,4-tetrahydroisoquinoline-2-carbonyl]-1,2,3,4-tetrahydroisoquinolin-6-yl]-1,2-dimethyl-1H-pyrrole-3-carboxamide]: the Ki is 4.3 nM at BCLXL WT, 0.05 nM on BCL2 WT, 0.1 nM on BCL2 D103Y and 0.2 nM at BCL2 G101V [1]. Further, the “TR_FRET EKI BCLxL/WT selectivty ratio” value at BCLXL WT turned out to be 84.3. Further, the figures for the IC50 in the assay on KMS-12-PE Bcl-2 WT and with KMS-12-PE Bcl-2 G101V were 0.0099 µM and 0.0602 µM, respectively. For the same molecule, the “TR_FRET EKI G101V/WT selectivty ratio” value in the assay on BCL2 G101V [2] came out at 3.9. For the same molecule, in the assay on KMS-12-PE Bcl-2 G101V, the “Ratio (G101V/WT)” value is given as 6.09.

For the molecule `Cc1c(N(C(=O)c2cc(-c3cc4c(cc3C(=O)N3Cc5ccccc5C[C@H]3CN3CCCCC3)CN(C(=O)Cc3ccc(OCCN(C)CCF)cc3)CC4)n(C)c2C)c2ccc(O)cc2)cc(C#N)n1C` [Example 116, N-(5-cyano-1,2-dimethyl-1H-pyrrol-3-yl)-5-{2-[2-(4-{2-[(2-fluoroethyl)(methyl)amino]ethoxy}phenyl)acetyl]-7-[(3S)-3-[(piperidin-1-yl)methyl]-1,2,3,4-tetrahydroisoquinoline-2-carbonyl]-1,2,3,4-tetrahydroisoquinolin-6-yl}-N-(4-hydroxyphenyl)-1,2-dimethyl-1H-pyrrole-3-carboxamide], the Ki was found to be 3.3 nM at BCLXL WT, 0.05 nM at BCL2 WT, 0.19 nM on BCL2 D103Y and 0.4 nM on BCL2 G101V [1]. Moreover, the “TR_FRET EKI BCLxL/WT selectivty ratio” value on BCLXL WT amounted to 61.1. For the same molecule, the half-inhibitory concentration (IC50) came out at 0.0111 µM in the assay with KMS-12-PE Bcl-2 WT and 0.0583 µM with KMS-12-PE Bcl-2 G101V. Moreover, the “TR_FRET EKI G101V/WT selectivty ratio” value with BCL2 G101V [2] is on record as 7.0. Besides, in the assay with KMS-12-PE Bcl-2 G101V, the “Ratio (G101V/WT)” value came out at 5.25.

For `Cc1c(N(C(=O)c2cc(-c3cc4c(cc3C(=O)N3Cc5ccccc5C[C@H]3CN3CCCCC3)CN(C(=O)Cc3ccc(OCCC5CCOCC5)nc3)CC4)n(C)c2C)c2ccc(O)cc2)cc(C#N)n1C` [Example 118, N-(5-cyano-1,2-dimethyl-1H-pyrrol-3-yl)-N-(4-hydroxyphenyl)-1,2-dimethyl-5-[2-(2-{6-[2-(oxan-4-yl)ethoxy]pyridin-3-yl}acetyl)-7-[(3S)-3-[(piperidin-1-yl)methyl]-1,2,3,4-tetrahydroisoquinoline-2-carbonyl]-1,2,3,4-tetrahydroisoquinolin-6-yl]-1H-pyrrole-3-carboxamide], the Ki on BCLXL WT stood at 5.2 nM; at BCL2 WT it was 0.1 nM; at BCL2 D103Y it was 0.14 nM; on BCL2 G101V [1], 0.5 nM. For the same molecule, the “TR_FRET EKI BCLxL/WT selectivty ratio” value at BCLXL WT came to 52.5. Further, the figures for the 50% inhibitory concentration (IC50) in the assay with KMS-12-PE Bcl-2 WT and with KMS-12-PE Bcl-2 G101V were 0.0107 µM and 0.0814 µM, respectively. In the assay with BCL2 G101V [2], the “TR_FRET EKI G101V/WT selectivty ratio” value worked out at 5.1. In the assay with KMS-12-PE Bcl-2 G101V, the “Ratio (G101V/WT)” value was found to be 7.61.

On to `Cc1c(N(C(=O)c2cc(-c3cc4c(cc3C(=O)N3Cc5ccccc5C[C@H]3CN3CCCCC3)CN(C(=O)Cc3ccc(OCCN5CCN(C)CC5)cc3)CC4)n(C)c2C)c2ccc(O)cc2)cc(C#N)n1C` [Example 119, N-(5-cyano-1,2-dimethyl-1H-pyrrol-3-yl)-N-(4-hydroxyphenyl)-1,2-dimethyl-5-[2-(2-{4-[2-(4-methylpiperazin-1-yl)ethoxy]phenyl}acetyl)-7-[(3S)-3-[(piperidin-1-yl)methyl]-1,2,3,4-tetrahydroisoquinoline-2-carbonyl]-1,2,3,4-tetrahydroisoquinolin-6-yl]-1H-pyrrole-3-carboxamide], for which the Ki on BCLXL WT came to 2.2 nM; at BCL2 WT, 0.04 nM; at BCL2 D103Y, 0.14 nM; on BCL2 G101V [1] it was 0.2 nM. For the same molecule, at BCLXL WT, the “TR_FRET EKI BCLxL/WT selectivty ratio” value is 56.4. Moreover, the IC50 in the assay with KMS-12-PE Bcl-2 WT turned out to be 0.0284 µM; in the assay with KMS-12-PE Bcl-2 G101V, 0.073 µM. For the same molecule, the “TR_FRET EKI G101V/WT selectivty ratio” value with BCL2 G101V [2] stood at 5.6. Further, the “Ratio (G101V/WT)” value in the assay on KMS-12-PE Bcl-2 G101V stood at 2.57.

For `Cc1c(N(C(=O)c2cc(-c3cc4c(cc3C(=O)N3Cc5ccccc5C[C@H]3CN3CCCCC3)CN(C(=O)Cc3ccc(OCCN5CCN(CCF)CC5)cc3)CC4)n(C)c2C)c2ccc(O)cc2)cc(C#N)n1C` [Example 122, N-(5-cyano-1,2-dimethyl-1H-pyrrol-3-yl)-5-{2-[2-(4-{2-[4-(2-fluoroethyl)piperazin-1-yl]ethoxy}phenyl)acetyl]-7-[(3S)-3-[(piperidin-1-yl)methyl]-1,2,3,4-tetrahydroisoquinoline-2-carbonyl]-1,2,3,4-tetrahydroisoquinolin-6-yl}-N-(4-hydroxyphenyl)-1,2-dimethyl-1H-pyrrole-3-carboxamide], the Ki on BCLXL WT was 3.7 nM; on BCL2 WT, 0.05 nM; on BCL2 D103Y it was 0.13 nM; on BCL2 G101V [1], 0.3 nM. For the same molecule, the “TR_FRET EKI BCLxL/WT selectivty ratio” value on BCLXL WT came to 69.8. The results for the half-maximal inhibitory concentration (IC50) in the assay with KMS-12-PE Bcl-2 WT and with KMS-12-PE Bcl-2 G101V were 0.0167 µM and 0.0662 µM, respectively. Moreover, the “TR_FRET EKI G101V/WT selectivty ratio” value in the assay with BCL2 G101V [2] amounted to 5.1. In the assay on KMS-12-PE Bcl-2 G101V, the “Ratio (G101V/WT)” value is 3.96.
